Assay results from patent publication US12589087B2, “Enantiomer selective action on neurotransmission” (The Board of Trustees of the Leland Stanford Junior …, priority 2021, dated 2026).

Test system: C57Bl/6 mice
Experiment: Chronic dosing behavioral tests (activity chamber, elevated plus maze, Y maze, Morris water maze, fear conditioning)
Type: in vivo, mouse
Conditions: for body weight, activity chamber distance, elevated plus maze open arm time, Y maze alternation, Morris water maze learning / mortality: 10 mg/kg/day IP for a month; for fear conditioning, contextual recall on Day 2: 10 mg/kg/day IP, week 4
Experimental: Dosing: (R)-2MeGlu (10 mg/kg), (S)-2MeGlu (10 mg/kg), rac-2MeGln (10 mg/kg), and vehicle (PBS) were administered IP at 10 ml/kg dosing volume daily. The first dose was administered one week prior to behavioral tests and continued for four weeks during the behavioral testing.
Activity Chamber Open Field: The assessment took place in an Open Field Activity Arena as described above for 30 min. The Arena was cleaned with a 1% Virkon solution at the end of the trial. Activity chamber open field assessment was conducted after one week of exposure to compounds or vehicle.
Elevated Plus Maze: The maze was made of acrylonitrile butadiene styrene (ABS) plastic and had two open arms and two close arms that were 30 cm long and 5 cm wide. The center area where the open and close arms meet was 5 cm×5 cm. The open arms had 2 mm lips at the edges, and the closed arms had 15 cm opaque walls. The maze was elevated 50 cm and surrounded by privacy blinds during the test. The maze was illuminated to 7 lux using red light throughout the test. Each mouse was released in the center of the maze and given 5 min to explore the maze. Duration and frequency in each zone of the maze were recorded using Ethovision (Noldus Information Technology, Wageningen, the Netherlands) tracking software. The maze was cleaned with a 1% Virkon solution at the end of the trial. Elevated plus maze was conducted after one week of exposure to compounds or vehicle.
Y Maze Spontaneous Alternation: The Y maze is made of plastic with 3 arms in a “Y” shape. The arms are labelled as Arm A, B, and C; Arm A is 20.32 cm (L)×5 cm (W) 12.7 cm (H), Arm B and C are 15.24 cm (L)×5 cm (W), and 12.7 cm (H). The test is based on the willingness of rodents to explore a novel environment and designed to measure spontaneous alternations in rodents. Each mouse was placed in the center of the maze facing Arm B. The first entry was excluded from data analysis because the animals were led to the initial arm entry by the experimenter. Using an overhead camera, the number of arm entries and alternations were recorded for 5 minutes. An arm entry is when all four paws enter into a new arm of the maze. The apparatus was cleaned with 1% Virkon. Parameters recorded were % alternation and the total number of entries into arms. The Y maze test was conducted after two weeks of exposure to compounds or vehicle.
Morris Water Maze: During the Hidden Platform Training (HPT), mice were given 2 trials, with 1-minute inter-trial-intervals (ITIs) in a circular water tank (172 cm diameter) filled with opaque water at 22.0±1.5° C. Nontoxic tempera paint was used to make the water opaque. A circular platform (17 cm diameter) was submerged 1 cm below the water's surface and placed in one of the four quadrants of the pool (Quadrant 2). The release locations into the pool were randomly chosen to prevent spatial bias and the platform was also relocated during reversal training. We conducted 3 days of training with 2 trials each day for a total of the 6 trials prior to probe 1 (Days 1 to 3). Specifically, mice were given a maximum of 60 s to find the submerged platform per trial. […] After remaining on the platform for 15 s, mice were removed from the platform and placed in a dry cage with a paper towel. This process was repeated for 3 days. On the following day (˜24 hours after the last training trial), the platform was removed from the pool, and a 60 s probe trial was conducted. After acquiring the data for the probe trial, the platform was replaced at the same location, and the mice were given additional two trials of training. Three days (˜72 hours) after the last training trial, a second probe trial was conducted. The platform was relocated to a new quadrant (Quadrant 4) after the second probe trial, and the animals were trained in Reversal Hidden Platform Training (RHPT). The procedures for RHPT were identical to HPT and were conducted for 3 days (Days 7 to 9). A third probe trial was conducted on the following day (˜24 hr). […]

| Structure (SMILES) | body weight, activity chamber distance, elevated plus maze open arm time, Y maze alternation, Morris water maze learning | mortality | fear conditioning, contextual recall on Day 2 |
| --- | --- | --- | --- |
| C[C@@](N)(CCC(=O)O)C(=O)O [(R)-2MeGlu, (R)-2-methylglutamic acid] | no significant effect of treatment | no mortality | no significant effect of treatments |
| CC(N)(CCC(N)=O)C(=O)O (racemic) [rac-2MeGln, rac-2-methylglutamine] | no significant effect of treatment | no mortality | no significant effect of treatments |
| C[C@](N)(CCC(=O)O)C(=O)O [(S)-2MeGlu, (S)-2-methylglutamic acid] | no significant effect of treatment | no mortality | no significant effect of treatments |
